Results as given in US5792742A, “Fibrin-binding peptide fragments of fibronectin” (New York University, priority 1994, dated 1998).

How the values were obtained:
fibrinogen = test: Binding of eluted 11 kDa fragment to fibrinogen-SEPHAROSE column; details: 37° C.; ethylene glycol eluted material
fibrin [1] = test: Elution of 11 kDa fragment from fibrin-SEPHAROSE with various agents (Table III); format: binding, bovine; details: rotated in the cold overnight
Protocol: Since complete recovery of fibrin-binding activity was desired for use of the molecule in clinical application, various buffers were tested in an attempt to optimize recovery of the peptide while retaining maximal biological activity.

fibrin [2] = test: Direct binding ELISA on fibrin-coated microtiter plates
Protocol: The preparation of fibrin coated microtiter plates was adapted from a method described by Christman et al., Biochim. Biophys. Acta. […] Microtiter (Immulon) plates were coated with fibrinogen at a concentration of 50-1000 ng/well/0.1 ml of Tris buffered saline (TBS). The plates were dried for 24 hours at 37° C. and 0.1 ml of thrombin (20 NIH units/100 ml) containing TRASYLOL™ (aprotinin) (400 K.I units/100 ml) in TBS was added to each well and the plates incubated for 2 hours at 37° C. Each well is washed one time with PBS and the plates are blocked for 1.5 hours with 1% BSA in TBS to prevent non-specific binding. A constant concentration of fibronectin and the 11 kDa fibrin-binding polypeptide (500 ng/0.1 ml) in 50 mM Tris-HCl, 0.1M NaCl, pH 7.6 (FBB) were incubated separately with fibrin coated microtiter wells (50-1000 ng) for 1 hr at room temperature (23° C.).
The wells were washed three times with FBB containing 0.05% Tween 20 (FBBT) and incubated for 1 hour with 0.05 ml of the a polyclonal anti-fibronectinantiserum (Calbiochem) or the purified IgG fraction of anti-11 kDa rabbit antisera, respectively, at a concentration of 1 μg/ml in FBBT containing 0.1% BSA (FBBT/BSA). Following three washes with FBBT, the wells were incubated with 0.05 ml of alkaline phosphatase labeled goat anti-rabbit IgG (TAGO) at a concentration of 2 μg/ml in FBBT/BSA, for 1 hour. The reaction was developed with 0.05 ml of […] p-nitrophenyl phosphate (Sigma phosphatase substrate tablets) in 10% diethanolamine, pH 9.8 containing 1 mM MgCl2.
2. […] Binding of ^4 F1.^5 F1 to fibrin coated microtiter plates was examined by ELISA as described above. Microtiter wells were coated with fibrin (50-1000 ng) and blocked, as described earlier, and incubated with the module pair ^4 F1.^5 F1 (500 ng/0.1 ml or 1000 ng/0.1 ml in FBB) for 1 hour, at room temperature.
Fibrin-binding activity was also assessed by an ELISA. Fn was reacted with fibrin-coated microtiter plates and bound Fn was determined by incubation with a polyclonal rabbit anti-Fn antiserum followed by alkaline phosphatase-labeled anti-rabbit Ig.

## 11 kDa FBP: 11 kDa C-terminal proteolytic (subtilisin) fibrin-binding fragment of human plasma fibronectin, residues 2123-2232 of SEQ ID NO:1
fibrinogen
  % of applied material bound to fibrinogen-SEPHAROSE column: 4-5%
Fibrin [1]; agent 1.0M Arginine, listed as 11 kDa FIBRIN-BINDING FRAGMENT
  % ELUTED from fibrin-SEPHAROSE: 26%
Fibrin [1]; agent 1.0M Arginine, listed as 11 kDa peptide
  % ELUTED from fibrin-SEPHAROSE: 25%
Fibrin [1]; agent 1.0M KBr
  % ELUTED from fibrin-SEPHAROSE: 55-65%
Fibrin [1]; agent 2.0M Urea
  % ELUTED from fibrin-SEPHAROSE: 32%
Fibrin [1]; agent 4.0M Urea
  % ELUTED from fibrin-SEPHAROSE: 50-60%
Fibrin [1]; agent 6.0M Urea
  % ELUTED from fibrin-SEPHAROSE: 100%
Fibrin [1]; agent 50% ethylene glycol, pH 11.5
  % ELUTED from fibrin-SEPHAROSE: 77%
Fibrin [2]
  amount bound relative to intact fibronectin on a mole-per-mole basis: 20 times
  amount giving maximum binding per 550 ng of fibrin: approximately 500 ng
Fibrin [2]; ELISA, room temperature, 1 hr
  binding to fibrin-coated wells: bound to the fibrin-coated wells in a concentration dependent manner
